The record followed here is ChEMBL document CHEMBL5523739, “NN1213 - A Potent, Long-Acting, and Selective Analog of Human Amylin” (J Med Chem, 2024).

The species named for test [1] is Homo sapiens. The test can be described thus: Selectivity ratio of EC50 for human CTR expressed in Baby hamster kidney cells to EC50 for human AMY3R complex of CTR/RAMP3 expressed in Baby hamster kidney cells. The format is cell-based.
For test [2], the species on record is Rattus norvegicus. Nature of the test: Selectivity ratio of IC50 for rat CTR expressed in Baby hamster kidney cell membrane to IC50 for rat AMY3R complex of CTR/RAMP3 expressed in Baby hamster kidney cell membrane. It is filed as cell-based.
Test [3] is filed under the species Homo sapiens. The test can be described thus: Selectivity ratio of IC50 for human CTR expressed in Baby hamster kidney cell membrane to IC50 for human AMY3R complex of CTR/RAMP3 expressed in Baby hamster kidney cell membrane. It is filed as cell-based.
The species named for test [4] is Rattus norvegicus. Nature of the test: Selectivity ratio of EC50 for rat CTR expressed in Baby hamster kidney cells to EC50 for rat AMY3R complex of CTR/RAMP3 expressed in Baby hamster kidney cells. The format is cell-based.
Test [5] concerns Rattus norvegicus. The test can be described thus: Appetite suppressing activity in rat assessed as reduction in food intake at 30 nmol/kg, sc measured upto 24 hrs relative to control. The format is functional. Details: scale not given: the % may be the effect or the level left.
Test [6] has as its system Rattus norvegicus. The test can be described thus: Appetite suppressing activity in rat assessed as reduction in food intake at 30 nmol/kg, sc measured for 24 to 48 hrs relative to control. The format is functional. Details: scale not given: the % may be the effect or the level left. The conditions noted are these: time 24-48 hrs.

On to `CC[C@H](C)[C@H](NC(=O)[C@H](C)NC(=O)CNC(=O)[C@H](Cc1ccccc1)NC(=O)[C@H](CC(N)=O)NC(=O)[C@@H]1CCCN1C(=O)[C@H](CO)NC(=O)[C@H](CO)NC(=O)[C@H](Cc1c[nH]cn1)NC(=O)[C@H](CCCNC(=N)N)NC(=O)[C@H](CC(C)C)NC(=O)[C@H](Cc1ccccc1)NC(=O)[C@H](CC(=O)O)NC(=O)[C@H](C)NC(=O)[C@H](CC(C)C)NC(=O)[C@H](CCCNC(=N)N)NC(=O)[C@H](CCC(N)=O)NC(=O)[C@@H](NC(=O)[C@H](C)NC(=O)[C@@H]1CSSC[C@H](NC(=O)[C@@H](N)CCCCN)C(=O)N[C@@H](CC(N)=O)C(=O)N[C@@H]([C@@H](C)O)C(=O)N[C@@H](C)C(=O)N[C@@H]([C@@H](C)O)C(=O)N1)[C@@H](C)O)C(=O)N1CCC[C@H]1C(=O)N[C@@H](CO)C(=O)N[C@H](CO)C(=O)N[C@H](C(=O)N[C@@H](CC(N)=O)C(=O)N[C@H](C(=O)NCC(=O)N[C@@H](CO)C(=O)N[C@@H](CC(=O)O)C(=O)N[C@H](C(=O)N[C@@H](Cc1ccc(O)cc1)C(N)=O)[C@@H](C)O)C(C)C)[C@@H](C)O`, for which the figures for the Ratio EC50 in the test filed under Homo sapiens [1] and in the test filed under Rattus norvegicus [4] were 15 and 1340, respectively. The Ratio IC50 in the test listed under Rattus norvegicus [2] was found to be 447; in the test filed under Homo sapiens [3], 55.
Turning to `CC[C@H](C)[C@H](NC(=O)[C@H](C)NC(=O)CNC(=O)[C@H](Cc1ccccc1)NC(=O)[C@H](CC(N)=O)NC(=O)[C@@H]1CCCN1C(=O)[C@H](CO)NC(=O)[C@H](CO)NC(=O)[C@H](Cc1c[nH]cn1)NC(=O)[C@H](CCCNC(=N)N)NC(=O)[C@H](CC(C)C)NC(=O)[C@H](Cc1ccccc1)NC(=O)[C@H](CC(=O)O)NC(=O)[C@H](C)NC(=O)[C@H](CC(C)C)NC(=O)[C@H](CCCNC(=N)N)NC(=O)[C@H](CCC(N)=O)NC(=O)[C@@H](NC(=O)[C@H](C)NC(=O)[C@@H]1CSSC[C@H](NC(=O)[C@@H](N)CCCCN)C(=O)N[C@@H](CC(N)=O)C(=O)N[C@@H]([C@@H](C)O)C(=O)N[C@@H](C)C(=O)N[C@@H]([C@@H](C)O)C(=O)N1)[C@@H](C)O)C(=O)N1CCC[C@H]1C(=O)N[C@@H](CO)C(=O)N[C@@H](CO)C(=O)N[C@H](C(=O)N[C@@H](CC(N)=O)C(=O)N[C@H](C(=O)NCC(=O)N[C@@H](CO)C(=O)N[C@@H](CC(=O)O)C(=O)N[C@H](C(=O)N[C@@H](Cc1ccc(O)cc1)C(N)=O)[C@@H](C)O)C(C)C)[C@@H](C)O`, the Activity in the test with Rattus norvegicus [5] was 72%; in the test with Rattus norvegicus [6] it was 62%.
